Seven compounds from publication PMC2831097, “Inhibition of L-Arginine Metabolizing Enzymes by L-Arginine-Derived Advanced Glycation End Products” (Journal of Clinical Biochemistry and Nutrition, 2010) can be followed below.

The target in test [1] is T1, recombinant eNOS (Bos taurus, UniProt P29473).
T1 construct: purchased Sigma Chemicals (St. Louis, MO)
As to the kind of experiment: NOS activity assay, conversion of L-[14C(U)]-arginine to L-[14C(U)]-citrulline, eNOS. Type of test: biochemical, bovine. The settings on record: 50 µM L-arginine, 30 min at 37°C, pH 7.4; means ± SD (n = 4). From the text:
(§1) L-Arginine, ADMA, N^G-hydroxy-L-arginine (NOHA), nicotinamide adenine dinucleotide phosphate reduced form (NADPH), flavin adenine dinucleotide (FAD), flavin mononucleotide (FMN), (6R)-5,6,7,8-tetrahydrobiopterin (BH4), recombinant eNOS (from bovine), iNOS (from mouse macrophage), Dowex® AG50W-X8 cation-exchange resin (mesh size, 100–200) were all purchased from Sigma Chemicals (St. Louis, MO). Ultima Gold XR scintillation liquid was from PerkinElmer (Shelton, CA). Recombinant nNOS (from rat) and N^G-hydroxy-nor-arginine (nor-NOHA) were obtained from Cayman Chemicals. Arginase (from bovine liver) was from Alexis Biochemicals (Lausen, Switzerland). […] All other chemicals were obtained from Wako Pure Chemical Industries, Osaka, Japan.
(§2) The NOS activities were determined by monitoring the conversion of L-[^14C(U)]-arginine (Moravek, Brea, CA) to L-[^14C(U)]-citrulline as previously described. Recombinant enzymes of three isoforms of NOS (specific activity: eNOS 0.03, nNOS 2.9, iNOS 0.62 units/mg protein) (10 µl) were added to a reaction mixture (final volume of 100 µl) consisting of 50 mM HEPES buffer (pH 7.4), 1 mM NADPH, 4 µM FAD, 4 µM FMN, 10 µM BH4, 1 mg/L calmodulin, 2.5 mM CaCl2, 50 µM L-arginine and 0.5 µCi/ml of L-[^14C(U)]-arginine (specific activity: 8.14–11.1 GBq/mmol). After incubation for 30 min at 37°C, the reactions were terminated by addition of 0.5 ml of 20 mM HEPES (pH 5.5) containing 2 mM EDTA and 2 mM EGTA. Samples were passed through a 1 ml column of Dowex AG50W-X8 (Na^+-form) to remove unconverted L-[^14C(U)]-arginine. L-[^14C(U)]-Citrulline was eluted twice with 1 ml of distilled water, and the eluted fractions mixed with 10 ml of cocktail (Ultima Gold XR) were quantified using a liquid scintillation counter. A reaction mixture containing L-[^14C(U)]-arginine without the enzyme was incubated as a control to determine background counts.

Test [2] deals with T2, recombinant iNOS (Mus musculus, UniProt P29477).
T2 construct: purchased Sigma Chemicals (St. Louis, MO)
As to the kind of experiment: NOS activity assay, conversion of L-[14C(U)]-arginine to L-[14C(U)]-citrulline, iNOS. The class given is biochemical. The settings on record: 50 µM L-arginine, 30 min at 37°C, pH 7.4; means ± SD (n = 4).
Excerpt: as §1, §2

For test [3], the target named is T3, recombinant nNOS (Rattus norvegicus, UniProt P29476).
T3 construct: purchased Cayman Chemicals
Kind of test: NOS activity assay, conversion of L-[14C(U)]-arginine to L-[14C(U)]-citrulline, nNOS. The settings on record: 50 µM L-arginine, 30 min at 37°C, pH 7.4; means ± SD (n = 4). The class given is biochemical.
Excerpt: as §1, §2

The target of test [4] is T4, arginase (Bos taurus, UniProt Q2KJ64).
T4 construct: purchased Alexis Biochemicals (Lausen, Switzerland)
T4 sequence (Q2KJ64 1-322): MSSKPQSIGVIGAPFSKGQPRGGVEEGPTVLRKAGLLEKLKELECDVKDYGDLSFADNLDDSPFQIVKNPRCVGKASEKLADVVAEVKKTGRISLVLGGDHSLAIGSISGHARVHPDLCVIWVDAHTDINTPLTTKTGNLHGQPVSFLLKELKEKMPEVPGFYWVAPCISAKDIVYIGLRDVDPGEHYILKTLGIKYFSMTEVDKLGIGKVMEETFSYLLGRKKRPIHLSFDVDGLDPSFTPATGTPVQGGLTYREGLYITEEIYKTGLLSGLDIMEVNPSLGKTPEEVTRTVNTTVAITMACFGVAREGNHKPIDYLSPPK
As to the kind of experiment: Arginase activity assay, conversion of L-[guanidine-14C]-arginine to [14C]-urea. The note with it: for IC50: 1 mM MnCl2, pH 9.6, 1 h at 37°C, means ± SD (n = 4); for inhibitory efficiency for arginase, fold weaker than NOHA: compared with NOHA (IC50 340 µM). The class given is biochemical, bovine. From the text:
L-Arginine, ADMA, N^G-hydroxy-L-arginine (NOHA), nicotinamide adenine dinucleotide phosphate reduced form (NADPH), flavin adenine dinucleotide (FAD), flavin mononucleotide (FMN), (6R)-5,6,7,8-tetrahydrobiopterin (BH4), recombinant eNOS (from bovine), iNOS (from mouse macrophage), Dowex® AG50W-X8 cation-exchange resin (mesh size, 100–200) were all purchased from Sigma Chemicals (St. Louis, MO). Ultima Gold XR scintillation liquid was from PerkinElmer (Shelton, CA). Recombinant nNOS (from rat) and N^G-hydroxy-nor-arginine (nor-NOHA) were obtained from Cayman Chemicals. Arginase (from bovine liver) was from Alexis Biochemicals (Lausen, Switzerland). L-NMMA was from Calbiochem, Darmstadt, Germany. All other chemicals were obtained from Wako Pure Chemical Industries, Osaka, Japan.
Assays for arginase activity were performed by monitoring the conversion of L-[guanidine-^14C]-arginine (Moravek, Brea, CA) to [^14C]-urea as previously described. Recombinant arginase (0.5 µg of protein, specific activity: 0.094 units/mg protein) (10 µl) was added to a mixture (final volume of 100 µl) containing 10 mM Tris-HCl buffer, pH 9.6, 1 mM MnCl2, and 0.16 µCi/ml of L-[guanidine-^14C]-arginine (specific activity: 1.85–2.22 GBq/mmol). After incubation for 1 h at 37°C, the reactions were terminated by addition of 0.4 ml of stop buffer containing 250 mM sodium acetate and 100 mM urea, pH 4.5. Samples were then passed through a 1 ml column of Dowex AG50W-8X (Na^+-form) to remove unmetabolized L-[guanidine-^14C]-arginine. [^14C]-Urea was eluted twice with 1 ml of distilled water, and the eluted fractions mixed with 10 ml of cocktail (Ultima Gold XR) were quantified using a liquid scintillation counter. A reaction mixture containing L-[guanidine-^14C]-arginine in the absence of enzyme was incubated as a control to determine background counts. The inhibitory effects of arginase were examined in the presence and absence of the test compounds at various concentrations.

Test [5] addresses T5, dimethylarginine dimethylaminohydrolase (DDAH) (Rattus norvegicus, UniProt O08557).
T5 construct: from tissue; host or cells: rat kidney homogenate supernatant
Kind of test: DDAH activity assay, conversion of L-[3H]-NMMA to L-[3H]-citrulline by rat kidney homogenate. The class given is biochemical. Here is the method: The DDAH activity was determined by monitoring the conversion of L-[4,5-^3H]-NMMA (American Radiolabeled Chemicals, Inc., St. Louis, MO) to L-[^3H]-citrulline as previously described. Rat kidney tissues (0.5 g) were homogenized in 1 ml of ice-cold 0.1 M sodium phosphate buffer (SPB, pH 6.5), and then centrifuged at 10,000 rpm for 5 min at 4°C. The supernatants were analyzed for protein content using a BCA protein reagent kit with bovine serum albumin as the standard. The supernatants were diluted with SPB to 1 mg protein in 50 µl, and then were added to a reaction mixture (a final volume of 100 µl) containing 0.1 M SPB (pH 6.5) and 0.1 µCi/ml of L-[^3H]-NMMA (specific activity: 1.48–2.96 TBq/mmol). After incubation for 1 h at 37°C, the reactions were terminated by keeping the tubes on ice for 5 min. Samples were then passed through a 1 ml column of Dowex AG50W-8X (Na^+-form) to remove unmetabolized L-[^3H]-NMMA. L-[^3H]-Citrulline was eluted twice with 1 ml of distilled water, and the eluted fractions mixed with 10 ml of cocktail (Ultima Gold XR) were quantified using a liquid scintillation counter. A reaction mixture containing L-[^3H]-NMMA in the absence of enzyme was added to the Dowex column to determine background counts. The effects of arginine derivatives on the enzyme activities in the presence and absence of the test compounds at various concentrations were examined.

Where [6] appears, read: rat kidney extracts, SPB pH 6.5, 1 h at 37°C, means ± SD (n = 4), read-out: IC50 DDAH.

Read-outs that look alike come from different tables or passages of the source. Where only a bound is given, the exact number is not on record here.

T5 sequence (O08557 whole entry): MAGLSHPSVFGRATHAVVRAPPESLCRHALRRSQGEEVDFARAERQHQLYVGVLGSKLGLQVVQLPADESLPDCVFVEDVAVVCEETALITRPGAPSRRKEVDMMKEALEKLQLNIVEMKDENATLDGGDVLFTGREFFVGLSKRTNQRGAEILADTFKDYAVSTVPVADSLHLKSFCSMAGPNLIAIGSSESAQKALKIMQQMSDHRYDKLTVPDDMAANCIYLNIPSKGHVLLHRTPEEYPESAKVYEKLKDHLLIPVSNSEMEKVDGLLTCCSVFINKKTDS

For orientation: IC50 means the midpoint of a concentration-inhibition curve. Consider `CN(C)C(=N)NCCCC(N)C(=O)O` [ADMA, asymmetric N^G,N^G-dimethyl-L-arginine, reference compound], for which the values for the IC50 in test [1], in test [2] and in test [3] were 0.016 ± 0.009 mM, 0.024 ± 0.001 mM and 0.023 mM, respectively.
In the case of `CC(NC(=N)NCCCC(N)C(=O)O)C(=O)O` (stereo not shown) [CEA, N^ω-carboxyethyl-arginine], the IC50 in test [1] is 3.87 ± 0.68 mM; in test [2], above 5 mM; in test [3] it was above 5 mM; in test [4], above 5 mM; in test [5] it was above 5 mM.
For `N=C(NCCCC(N)C(=O)O)NCC(=O)O` (stereo not shown) [CMA, N^ω-Carboxymethyl-arginine], the IC50 was 0.83 ± 0.036 mM in test [1]; 1.16 ± 0.04 mM in test [2]; above 5 mM in test [3]; 1.47 ± 0.12 mM in test [4]; above 5 mM in test [5]. For the same compound, the “inhibitory efficiency for arginase, fold weaker than NOHA” value in test [4] is “approximately 3 fold”.
As for `NC(CCCCNCC(=O)O)C(=O)O` (stereo not shown) [CML, carboxymethyl-lysine], the IC50 in test [1] is above 5 mM; in test [2], above 5 mM; in test [3] it was 1.93 ± 0.3 mM; in test [4] it was 1.06 ± 0.06 mM; in test [5] (setting [6]), above 5 mM. The “inhibitory efficiency for arginase, fold weaker than NOHA” value in test [4] is “approximately 3 fold”.
With `CC1NC(NCCCC(N)C(=O)O)=NC1=O` (stereo not shown) [MG-H1, N^δ-(5-hydro-5-methyl-4-imidazolon-2-yl)-ornithine], the concentration for half-maximal inhibition (IC50) in test [1] was 1.28 ± 0.075 mM; in test [2], 2.97 ± 0.56 mM; in test [3] it was 4.17 ± 0.38 mM; in test [4], above 5 mM; in test [5] (setting [6]), above 5 mM.
The compound `NC(=NCCCC(N)C(=O)O)NO` [NOHA, N^G-hydroxy-L-arginine, reference compound] returned an IC50 in test [4] of 0.34 ± 0.012 mM.
Regarding `N=C(NO)NCC[C@H](N)C(=O)O` [Nor-NOHA, N^G-hydroxy-nor-arginine, reference compound], the IC50 in test [4] was determined as 0.23 ± 0.026 mM; in test [5], 1.77 ± 0.25 mM.
